US9688645B2, “Macrocyclic urea and sulfamide derivatives as inhibitors of TAFIa” (SANOFI, priority 2008, dated 2017)
Where two headings read alike, the source gives them in different places.

Assays:
[1] = rcm bond, dichloromethane
TAFIa = TAFIa (Homo sapiens (Human), UniProt Q96IY4); assay: TAFIa inhibition, Actichrome plasma TAFI Activity Kit (American Diagnostica); format: biochemical; details: chromogenic read-out at 420 nm, 15 min preincubation at room temperature, pH 7.4, duplicate determination
Chain of TAFIa (Q96IY4 115-423): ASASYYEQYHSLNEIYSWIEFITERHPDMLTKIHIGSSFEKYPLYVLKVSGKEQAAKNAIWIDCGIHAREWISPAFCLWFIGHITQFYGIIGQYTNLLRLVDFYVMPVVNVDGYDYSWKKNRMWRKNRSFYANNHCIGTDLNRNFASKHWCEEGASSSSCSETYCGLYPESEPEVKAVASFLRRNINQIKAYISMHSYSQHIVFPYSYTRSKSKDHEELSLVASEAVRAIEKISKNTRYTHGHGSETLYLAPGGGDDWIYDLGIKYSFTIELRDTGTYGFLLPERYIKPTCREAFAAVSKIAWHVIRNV
Protocol: The prepared substances were tested for TAFIa inhibition using the Actichrome plasma TAFI Activity Kit from American Diagnostica (Pr. No. 874). This entailed adding 28 μl of assay buffer (20 mM Hepes, 150 mM NaCl, pH 7.4) and 10 μl of TAFIa (American Diagnostica Pr. No. 874TAFIA; 2.5 μg/ml) to 2 μl of 2.5 mM DMSO solution of the substance and incubating in a 96 half-well microtiter plate at room temperature for 15 minutes. The enzyme reaction was started by adding 10 μl of TAFIa developer (prediluted 1:2 with assay buffer). The time course of the reaction was followed at 420 nm in a microtiter plate reader (SpectraMax plus 384; Molecular Devices) for 15 minutes.
The IC50 values were calculated from the averaged values (duplicate determination) of serial dilutions of the substance with the aid of the Softmax Pro software (version 4.8; Molecular Devices).

CC(C)[C@H]1COCC=CCOc2ccc(cc2)C[C@@H](NC(=O)OCC2c3ccccc3-c3ccccc32)C(=O)N1
ring closure, yield of all isomers ([1]; from C=CCOC[C@@H](NC(=O)[C@@H](Cc1ccc(OCC=C)cc1)NC(=O)OCC1c2ccccc2-c2ccccc21)C(C)C, dichloro(o-isopropoxyphenylmethylene)(tricyclohexylphosphine)ruthenium (Hoveyda-Grubbs catalyst), 3.61 mM, 40.0 °C, 24.0 h): 86.6%

CC(C)[C@H]1COCC=CCn2cnc(c2)C[C@@H](NC(=O)OCc2ccccc2)C(=O)N1
ring closure, yield of all isomers ([1]; from C=CCOC[C@@H](NC(=O)[C@@H](Cc1cn(CC=C)cn1)NC(=O)OCc1ccccc1)C(C)C, benzylidene[1,3-bis(2,4,6-trimethylphenyl)-2-imidazolidinylidene]dichloro(tricyclohexylphosphine)ruthenium (Grubbs II catalyst), 4.38 mM, 25.0 °C): 73.3%

CC(C)[C@H]1COCCCCCC=CCOc2ccc(cc2)C[C@@H](NC(=O)OCC2c3ccccc3-c3ccccc32)C(=O)N1
ring closure, yield of all isomers ([1]; from C=CCCCCCOC[C@@H](NC(=O)[C@@H](Cc1ccc(OCC=C)cc1)NC(=O)OCC1c2ccccc2-c2ccccc21)C(C)C, dichloro(o-isopropoxyphenylmethylene)(tricyclohexylphosphine)ruthenium (Hoveyda-Grubbs catalyst), 3.5 mM, 40.0 °C, 24.0 h): 90.4%

CC(C)[C@H]1COCCCCOc2ccc(cc2)C[C@@H](NC(=O)N[C@@H](CCCCN)C(=O)O)C(=O)N1 [Example 1-1, (S)-6-Amino-2-[3-((9S,12R)-9-isopropyl-11-oxo-2,7-dioxa-10-azabicyclo[12.2.2]octadeca-1(17),14(18),15-trien-12-yl)ureido]hexanoic acid]
IC50 (TAFIa): 0.006 µM

NCCCC[C@H](NC(=O)N[C@@H]1Cc2ccc(cc2)OCCCCOCCNC1=O)C(=O)O [Example 1-2, (S)-6-Amino-2-[3-((R)-11-oxo-2,7-dioxa-10-azabicyclo[12.2.2]octadeca-1(17),14(18),15-trien12-yl)ureido]hexanoic acid]
IC50 (TAFIa): 9.04 µM

CC1(C)COCCCCOc2ccc(cc2)C[C@@H](NC(=O)N[C@@H](CCCCN)C(=O)O)C(=O)N1 [Example 1-3, (S)-6-Amino-2-[3-((R)-9,9-dimethyl-11-oxo-2,7-dioxa-10-azabicyclo[12.2.2]octadeca-1(17),14(18),15-trien-12-yl)ureido]hexanoic acid]
IC50 (TAFIa): 0.269 µM

NCCCC[C@H](NC(=O)N[C@@H]1Cc2ccc(cc2)OCCCCOC[C@H](c2ccccc2)NC1=O)C(=O)O [Example 1-4, (S)-6-Amino-2-[3-((9S,12R)-11-oxo-9-phenyl-2,7-dioxa-10-azabicyclo[12.2.2]octadeca-1(17),14(18),15-trien-12-yl)ureido]hexanoic acid]
IC50 (TAFIa): 0.071 µM

NCCCC[C@H](NC(=O)N[C@@H]1Cc2ccc(cc2)OCCCCOC[C@H](Cc2ccccc2)NC1=O)C(=O)O [Example 1-5, (S)-6-Amino-2-[3-((9S,12R)-9-benzyl-11-oxo-2,7-dioxa-10-azabicyclo[12.2.2]octadeca-1(17),14(18),15-trien-12-yl)ureido]hexanoic acid]
IC50 (TAFIa): 0.105 µM

NCCCC[C@H](NC(=O)N[C@@H]1Cc2ccc(cc2)OCCCCOC[C@H](C2CCCCC2)NC1=O)C(=O)O [Example 1-6, (S)-6-Amino-2-[3-((9S,12R)-9-cyclohexyl-11-oxo-2,7-dioxa-10-azabicyclo[12.2.2]octadeca-1(17),14(18),15-trien-12-yl)ureido]hexanoic acid]
IC50 (TAFIa): 0.811 µM

CC[C@H]1COCCCCOc2ccc(cc2)C[C@@H](NC(=O)N[C@@H](CCCCN)C(=O)O)C(=O)N1 [Example 1-7, (S)-6-Amino-2-[3-((9S,12R)-9-ethyl-11-oxo-2,7-dioxa-10-azabicyclo[12.2.2]octadeca-1(17),14(18),15-trien-12-yl)ureido]hexanoic acid]
IC50 (TAFIa): 0.049 µM

C[C@H]1COCCCCOc2ccc(cc2)C[C@@H](NC(=O)N[C@@H](CCCCN)C(=O)O)C(=O)N1 [Example 1-8, (S)-6-Amino-2-[3-((9S,12R)-9-methyl-11-oxo-2,7-dioxa-10-azabicyclo[12.2.2]octadeca-1(17),14(18),15-trien-12-yl)ureido]hexanoic acid]
IC50 (TAFIa): 0.029 µM

CC(C)(C)[C@H]1COCCCCOc2ccc(cc2)C[C@@H](NC(=O)N[C@@H](CCCCN)C(=O)O)C(=O)N1 [Example 1-9, (S)-6-Amino-2-[3-((9S,12R)-9-tert-butyl-11-oxo-2,7-dioxa-10-azabicyclo[12.2.2]octadeca-1(17),14(18),15-trien-12-yl)ureido]hexanoic acid]
IC50 (TAFIa): 0.019 µM

CC(C)[C@H]1COCCCCCCCCOc2ccc(cc2)C[C@@H](NC(=O)N[C@@H](CCCCN)C(=O)O)C(=O)N1 [Example 2-1, (S)-6-Amino-2-[3-((13S,16R)-13-isopropyl-15-oxo-2,11-dioxa-14-azabicyclo[16.2.2]docosa-1(21), 18(22), 19-trien-16-yl)ureido]hexanoic acid]
IC50 (TAFIa): 0.0088 µM

CC(C)[C@H]1COC/C=C/COc2ccc(cc2)C[C@@H](NC(=O)N[C@@H](CCCCN)C(=O)O)C(=O)N1 [Example 3-1, (S)-6-Amino-2-[3-((E)-(9S,12R)-9-isopropyl-11-oxo-2,7-dioxa-10-azabicyclo[12.2.2]octadeca-1(17),4,14(18), 15-tetraen-12-yl)ureido]hexanoic acid]
IC50 (TAFIa): 0.0077 µM

CC(C)[C@H]1COCCCCCCCC[C@@H](NC(=O)N[C@@H](CCCCN)C(=O)O)C(=O)N1 [Example 4-1, (S)-6-Amino-2-[3-((3S,6R)-3-isopropyl-5-oxo-1-oxa-4-azacyclotetradec-6-yl)ureido]hexanoic acid]
IC50 (TAFIa): 0.017 µM

CC(C)[C@H]1COCCCCOc2ccc(cc2)C[C@@H](NC(=O)N[C@@H](CS(=O)(=O)CCN)C(=O)O)C(=O)N1 [Example 5-1, (R)-3-(2-Aminoethanesulfonyl)-2-[3-((9S,12R)-9-isopropyl-11-oxo-2,7-dioxa-10-azabicyclo[12.2.2]octadeca-1(17),14(18), 15-trien-12-yl)ureido]propionic acid]
IC50 (TAFIa): 0.649 µM

CC(C)[C@H]1COCCCCOc2ccc(cc2)C[C@@H](NC(=O)N[C@@H](Cc2ccc(N)nc2)C(=O)O)C(=O)N1 [Example 5-2, (S)-3-(6-Aminopyridin-3-yl)-2-[3-((9S,12R)-9-isopropyl-11-oxo-2,7-dioxa-10-azabicyclo[12.2.2]octadeca-1(17),14(18), 15-trien-12-yl)ureido]propionic acid]
IC50 (TAFIa): 0.009 µM

Nc1ccc(C[C@H](NC(=O)N[C@@H]2Cc3ccc(cc3)OCCCCOC[C@H](C3CC3)NC2=O)C(=O)O)cn1 [Example 5-3, (S)-3-(6-Aminopyridin-3-yl)-2-[3-((9S,12R)-9-cyclopropyl-11-oxo-2,7-dioxa-10-azabicyclo[12.2.2]octadeca-1(17),14(18), 15-trien-12-yl)ureido]propionic acid]
IC50 (TAFIa): 0.032 µM

CC(C)[C@H]1COCCCCn2cnc(c2)C[C@@H](NC(=O)N[C@@H](Cc2ccc(N)nc2)C(=O)O)C(=O)N1 [Example 6-1, (S)-3-(6-Aminopyridin-3-yl)-2-[3-((8S,11R)-8-isopropyl-10-oxo-6-oxa-1,9,14-triazabicyclo[11.2.1]hexadeca-13(16),14-dien-11-yl)ureido]propionic acid]
IC50 (TAFIa): 0.052 µM

CC(C)[C@H]1COCCCCc2ccc(cc2)C[C@@H](NC(=O)N[C@@H](Cc2ccc(N)nc2)C(=O)O)C(=O)N1 [Example 6-2, (S)-3-(6-Aminopyridin-3-yl)-2-[3-((3R,6S)-6-isopropyl-4-oxo-8-oxa-5-azabicyclo[11.2.2]heptadeca-1(16),13(17), 14-trien-3-yl)ureido]propionic acid]
IC50 (TAFIa): 0.021 µM

CC(C)[C@H]1COCCCCOc2ccc(cc2F)C[C@@H](NC(=O)N[C@@H](Cc2ccc(N)nc2)C(=O)O)C(=O)N1 [Example 6-3, (S)-3-(6-Aminopyridin-3-yl)-2-[3-((9S,12R)-16-fluoro-9-isopropyl-11-oxo-2,7-dioxa-10-azabicyclo[12.2.2]octadeca-1(17),14(18), 15-trien-12-yl)ureido]propionic acid]
IC50 (TAFIa): 0.012 µM

CC(C)[C@H]1COCCCCOC[C@@H](NC(=O)N[C@@H](Cc2ccc(N)nc2)C(=O)O)C(=O)N1 [Example 6-4, (S)-3-(6-Aminopyridin-3-yl)-2-[3-((3S,6R)-3-isopropyl-5-oxo-1,8-dioxa-4-azacyclododec-6-yl)ureido]propionic acid]
IC50 (TAFIa): 0.055 µM

CC(C)[C@H]1COCCC(=O)Nc2ccc(cc2)C[C@@H](NC(=O)N[C@@H](CCCCN)C(=O)O)C(=O)N1 [Example 7-1, (S)-6-Amino-2-[3-((8S,11R)-8-isopropyl-3,10-dioxo-6-oxa-2,9-diazabicyclo[11.2.2]heptadeca-1(16),13(17),14-trien-11-yl)ureido]hexanoic acid]
IC50 (TAFIa): 0.022 µM

CC(C)[C@H]1COCCNC(=O)c2ccc(cc2)C[C@@H](NC(=O)N[C@@H](Cc2ccc(N)nc2)C(=O)O)C(=O)N1 [Example 7-4, (S)-3-(6-Aminopyridin-3-yl)-2-[3-((8S,11R)-8-isopropyl-2,10-dioxo-6-oxa-3,9-diazabicyclo[11.2.2]heptadeca-1(16),13(17), 14-trien-11-yl)ureido]propionic acid]
IC50 (TAFIa): 0.04 µM

CC(C)[C@H]1COCC(O)C(O)COc2ccc(cc2)C[C@@H](NC(=O)N[C@@H](CCCCN)C(=O)O)C(=O)N1 (stereo partly drawn) [Example 8-1, (S)-6-Amino-2-[3-((9S,12R)-4,5-dihydroxy-9-isopropyl-11-oxo-2,7-dioxa-10-azabicyclo[12.2.2]octadeca-1(17),14(18),15-trien-12-yl)ureido]hexanoic acid]
IC50 (TAFIa): 0.023 µM

CC(C)[C@H]1COCC(O)C(O)COc2ccc(cc2)C[C@@H](NC(=O)NC(Cc2ccc(N)nc2)C(=O)O)C(=O)N1 (stereo partly drawn) [Example 8-3, 3-(6-Aminopyridin-3-yl)-2-[3-((9S,12R)-4,5-dihydroxy-9-isopropyl-11-oxo-2,7-dioxa-10-azabicyclo[12.2.2]octadeca-1(17),14(18), 15-trien-12-yl)ureido]propionic acid]
IC50 (TAFIa): 0.059 µM
